The values below come from patent US20250312258A1, “2,3-PYRROLIDINEDIONE CONJUGATES AND METHODS OF USING THEREOF” (North Carolina State University, priority 2022, published 2025).

One experiment has as its system S. aureus 25923. Kind of experiment: Broth microdilution MIC, S. aureus 25923. Type of experiment: cell-based, Staphylococcus aureus. The conditions noted are these: Staphylococcus aureus, 25923; read-out: MIC (S. aureus 25923). For orientation: Dilution methods test growth across graded concentrations, often in twofold steps.
For another experiment, the system named is S. aureus 29213. Kind of experiment: Broth microdilution MIC, S. aureus 29213. As to conditions: Staphylococcus aureus, 29213; read-out: MIC (S. aureus 29213). Type of experiment: cell-based, Staphylococcus aureus.
In another experiment the test system is MRSA 33591. Description: Broth microdilution MIC, MRSA 33591. Type of experiment: cell-based. The conditions noted are these: Staphylococcus aureus, read-out: MIC (MRSA 33591).
The subject of a further experiment is VRSA. Kind of experiment: MIC against VRSA (Table 2). Type of experiment: cell-based. As to conditions: Staphylococcus aureus, read-out: MIC (VRSA).
A further experiment deals with S. aureus VRS-2. Description: VRSA thigh infection model in neutropenic mice. Type of experiment: in vivo, mouse. As to conditions: 50 mg/kg PO BID q12h, 26 h post-infection, p<0.05. How it is done:
(§1) FIG. 8 is a plot comparing the efficacy of linezolid, Compound 4 (AV-0273), and Compound 8 (AV-0267) in the S. aureus VRS-2 thigh infection model, CFU/g thigh. Test animals were rendered neutropenic with cyclophosphamide administration, 150 mg/kg on Day −4 then 100 mg/kg on Day −1 prior to infection on Day 0. On Day 0, animals were intramuscularly inoculated with 8.4×10^4 CFU/mouse (0.1 mL/animal) of the S. aureus VRS-2 strain. The vehicle and the test articles, Compound 4 (AV-0273) and Compound 8 (AV-0267), both at 100 mg/kg, were each intraperitoneally (IP) administered twice with a 12 h interval (BID q12h) at 2 and 14 h after infection. The reference standard, linezolid at 50 mg/kg, was orally (PO) administered BID q12 h starting at 2 h post-infection. Animals were sacrificed at 2 or 26 h post-infection, and the thigh tissues were harvested and weighed from each of the test animals. The bacterial counts (CFU/g thigh) of thigh tissue homogenates were measured.
as §1, with “FIG. 9” for “FIG. 8”, “of linezolid” for “of linezolid,”, “CFU/g thigh, change in bacterial counts relative to baseline count at 26h post-infection. Data represent the change in bacterial counts in thigh tissue following test article treatment relative to the initial 2 h CFU/g thigh or CFU/thigh at the time of dosing (baseline counts).” for “CFU/g thigh.”, “(BID q12 h)” for “(BID q12h)”, “(CFU/g thigh and CFU/thigh)” for “(CFU/g thigh)”, “were compared.” for “were measured.”
Example vancomycin-2,3-pyrrolidinediones conjugates were evaluated using an in vivo tissue infection model with vancomycin resistant MRSA:
Animal model: Murine thigh infection
Bacteria: VRSA (VRS-2). Gram Positive, Staphylococcus aureus (VRSA, VRS-2), Mouse Infected Thigh Model. VRS-2 is VanA producing SCC Mec II st5 train.
Vancomycin conjugates dose: 100 mg/Kg intraperitoneally (IP).
Application: This model assesses the antimicrobial efficacy of test articles in a tissue infection model with vancomycin resistant MRSA. Microbial counts are measured. […]

Converted amounts (≈) assume the structure as drawn.

The MIC is the least concentration at which growth counts as inhibited. As for `CCC1C(c2ccc(C(F)(F)F)cc2)=C(O)C(=O)N1CCCCNC` (stereo not shown) [Compound 2], the MIC in the experiment on S. aureus 25923 was 2 µg/mL (≈ 5.61 µM); with S. aureus 29213, 1 µg/mL (≈ 2.81 µM); in the experiment with MRSA 33591, 2 µg/mL (≈ 5.61 µM).

On to `CCC1C(c2ccc(C(F)(F)F)cc2)=C(O)C(=O)N1CCCCCCNC` (stereo not shown) [Compound 3], for which the MIC in the experiment on S. aureus 25923, in the experiment on S. aureus 29213 and in the experiment on MRSA 33591 was 2 µg/mL (≈ 5.2 µM) each time.

For the compound `CCC1C(c2ccc(C(F)(F)F)cc2)=C(O)C(=O)N1c1ccc(NC)cc1` (stereo not shown) [Compound 5], the MIC is 2 µg/mL (≈ 5.31 µM) in the experiment on S. aureus 25923, 1 µg/mL (≈ 2.66 µM) with S. aureus 29213 and 1 µg/mL (≈ 2.66 µM) in the experiment on MRSA 33591.

`CCC1C(c2ccc(C(F)(F)F)cc2)=C(O)C(=O)N1CCOCCNC` (stereo not shown) [Compound 6]: the MIC in the experiment with S. aureus 25923 and with S. aureus 29213 was 1 µg/mL (≈ 2.69 µM) in each case.

As to `CCC1C(c2ccc(C(F)(F)F)cc2)=C(O)C(=O)N1CCOCCOCCOCCNC` (stereo not shown) [Compound 7], the MIC with S. aureus 25923 was found to be 2 µg/mL (≈ 4.34 µM); in the experiment with S. aureus 29213, 1 µg/mL (≈ 2.17 µM); with MRSA 33591, 1 µg/mL (≈ 2.17 µM); in the experiment with VRSA, 4 µg/mL (≈ 8.69 µM).

Take `CCC1C(c2ccc(C(F)(F)F)cc2)=C(O)C(=O)N1CCCNCCCCNCCCNC` (stereo not shown) [Compound 9b]: the MIC in the experiment with S. aureus 25923 was 0.5 to 1 µg/mL (≈ 1.06 to 2.13 µM); in the experiment on S. aureus 29213 it was 1 µg/mL (≈ 2.13 µM); in the experiment on MRSA 33591, 1 µg/mL (≈ 2.13 µM).

As to `CCC1C(c2ccc(C(F)(F)F)cc2)=C(O)C(=O)N1CCN(CCNC)CCN1C(=O)C(O)=C(c2ccc(C(F)(F)F)cc2)C1CC` (stereo not shown) [Compound 10], the MIC was 16 µg/mL (≈ 23.9 µM) in the experiment on S. aureus 25923, 8 µg/mL (≈ 12 µM) with S. aureus 29213 and 8 µg/mL (≈ 12 µM) with MRSA 33591.

For the compound `CC(=O)NC[C@H]1CN(c2ccc(N3CCOCC3)c(F)c2)C(=O)O1` [Linezolid, reference compound], in the experiment with S. aureus VRS-2, the “reduction in bacterial counts compared to the vehicle control group” value is on record as 100%.
